{"source": "patent US20220315534A1", "about": "“BETA ADRENERGIC AGONIST AND METHODS OF USING THE SAME” (Curasen Therapeutics, Inc., priority 2019, published 2022)", "data": [{"target": "T1, β2-adrenergic receptor (B2-AR) (Homo sapiens, UniProt P07550)", "T1 construct": "expressed in transfected cells", "T1 sequence (P07550 whole entry)": "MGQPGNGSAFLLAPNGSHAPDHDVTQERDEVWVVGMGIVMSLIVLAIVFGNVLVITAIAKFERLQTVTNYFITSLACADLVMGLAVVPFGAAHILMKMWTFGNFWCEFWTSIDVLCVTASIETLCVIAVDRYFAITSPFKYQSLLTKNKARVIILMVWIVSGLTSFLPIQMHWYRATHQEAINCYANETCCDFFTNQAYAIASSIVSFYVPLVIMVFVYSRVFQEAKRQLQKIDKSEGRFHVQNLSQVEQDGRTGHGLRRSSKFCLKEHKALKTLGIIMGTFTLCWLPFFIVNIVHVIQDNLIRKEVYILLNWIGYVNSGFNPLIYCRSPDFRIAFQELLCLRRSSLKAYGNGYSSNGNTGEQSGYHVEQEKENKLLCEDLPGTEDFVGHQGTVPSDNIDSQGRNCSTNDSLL", "test": "cAMP Gs dynamic HTRF assay, cells expressing β2-adrenergic receptor", "type": "cell-based", "settings": "CHO-K1 (HitHunter) cells; read-out: Average pEC50 [Receptor subtype: B2-AR; Cell type: CHO-K1 (HitHunter)] (converted)", "protocol": "(§1) cAMP homogeneous time-resolved fluorescence (HTRF): experimental methods. Compound efficacy is determined using the cAMP Gs dynamic HTRF assay (Cisbio, catalog #62AM4PEC) largely following the manufacturer's instructions, also detailed below.\n(§2) Standard serial dilution curves are 10-point, 5-fold dilutions starting from a highest concentration of 10 μM. […] Assay plates are centrifuged at 500×g for 10 seconds. Compounds and IBMX are prepared at 2× final dose to compensate for addition of cells.\n(§3) Cell preparation: 1× stimulation buffer, washing PBS (Dulbecco's phosphate-buffered saline, —Mg —Ca; Caisson Labs, catalog #PBL01), assay PBS (Dulbecco's phosphate-buffered saline, +Mg, +Ca; Caisson Labs, catalog #PBL02) and Versene (0.02% EDTA disodium salt solution in PBS without calcium or magnesium; Caisson Labs, catalog #EDL01) are pre-warmed to 37° C. Cells expressing beta-adrenergic receptor were washed in washing PBS to remove growth medium and then released from the surface by incubating with Versene for 5-10 minutes at 37° C. Cells are harvested using assay PBS, counted manually by hemocytometer or by an automated cell counter, pelleted by centrifugation (200×g, 5 minutes) and resuspended in 37° C. 1× stimulation buffer to a final density of […]. 5 μL of the suspended cell solution (7500 cell total) are added to all wells of the 384 well assay plate, the assay plate was covered with an Axygen® plate seal (Corning PCR-SP) and incubated in a humidified 37° C. environment supplemented with 5% CO2 for 30 minutes.\n(§4) HTRF reagent addition, reading and data analysis: After 30 minutes of cell stimulation with test compound, the assay plates are centrifuged at 500×g for 10 seconds, and incubation was stopped with the addition of 5 μL cAMP-D2 acceptor, diluted 1:21 in detection and lysis buffer 2 (Cisbio 62CL2FDF) was added to all cells. Subsequently, 5 μL Anti-cAMP-Eu Donor, diluted 1:21 in detection and lysis buffer 2, was added to cells. Plates were sealed and reactions gently ‘vortexed’ at 900 rpm on a Heidolph Titramax 1000 for at least 30 minutes at room temperature. Plates are centrifuged again at 500×g for 10 seconds, and HTRF was measured using a Tecan Spark plate reader at 50 flashes per well. […] Potency estimates (EC50 and pEC50) are derived from the four-parameter nonlinear regression of the concentration-effect curve and an estimate of relative efficacy is determined by comparing the magnitude of the test compound HTRF signal window (min-max dose) with the signal window of the full agonist control, isoproterenol.", "units": {"EC50": "nM"}, "values": [{"smiles": "Cc1c[nH]c2cccc([C@@H](O)CNC(C)(C)C)c12", "note": "[Compound 04-111]", "EC50": "> 1000"}, {"smiles": "CC(C)(C)NC[C@H](O)c1cccc2[nH]cc(F)c12", "note": "[Compound 04-112]", "EC50": "< 10"}, {"smiles": "CC(C)(C)NC[C@H](O)c1cccc2[nH]nc(F)c12", "note": "[Compound 04-113]", "EC50": "< 10"}, {"smiles": "Cc1c[nH]c2nccc([C@@H](O)CNC(C)(C)C)c12", "note": "[Compound 04-114]", "EC50": "> 1000"}, {"smiles": "CC(C)(C)NC[C@H](O)c1ccc2nn[nH]c2c1", "note": "[Compound 04-115]", "EC50": "10 to 100"}, {"smiles": "CC(C)(C)NC[C@H](O)c1cccc2[nH]c(=O)oc12", "note": "[Compound 04-116]", "EC50": "< 10"}, {"smiles": "CC(C)(C)NC[C@H](O)c1cc(Cl)c2[nH]cnc2c1", "note": "[Compound 04-117]", "EC50": "< 10"}, {"smiles": "Cc1nc2cc([C@@H](O)CNC(C)(C)C)ccc2[nH]1", "note": "[Compound 04-118]", "EC50": "> 1000"}, {"smiles": "CC(C)(C)NC[C@H](O)c1cccc2[nH]c3cccnc3c12", "note": "[Compound 04-119]", "EC50": "< 10"}, {"smiles": "CC(C)(C)NC[C@H](O)c1cccc2c1C1(CC1)CN2", "note": "[Compound 04-120]", "EC50": "100 to 1000"}, {"smiles": "CC(C)(C)NC[C@H](O)c1ccc(F)c2[nH]c3ccccc3c12", "note": "[Compound 04-122]", "EC50": "< 10"}, {"smiles": "CC(C)(C)NC[C@H](O)c1ccc2c(c1)C1(CC1)CN2", "note": "[Compound 04-123]", "EC50": "100 to 1000"}, {"smiles": "CC(C)(C)NC[C@H](O)c1ccc2[nH]cnc2c1", "note": "[Compound 04-124]", "EC50": "< 10"}, {"smiles": "COc1ccc(C[C@@H](C)NC[C@H](O)c2cccc3[nH]c4ccccc4c23)cc1", "note": "[Compound 04-125]", "EC50": "< 10"}, {"smiles": "CC(C)(C)NC[C@@H](O)c1ccnc2[nH]ncc12", "note": "[Compound 04-126]", "EC50": "> 1000"}, {"smiles": "CC(C)(C)NC[C@H](O)c1ccnc2[nH]ncc12", "note": "[Compound 04-127]", "EC50": "< 10"}, {"smiles": "CC(C)(C)NC[C@H](O)c1ccc2c(c1)[nH]c1ncccc12", "note": "[Compound 04-128]", "EC50": "100 to 1000"}, {"smiles": "CC(C)(C)NC[C@H](O)c1cccc2c1CCCC(=O)N2", "note": "[Compound 04-129]", "EC50": "10 to 100"}, {"smiles": "Cc1ccc([C@@H](O)CNC(C)(C)C)c2cn[nH]c12", "note": "[Compound 04-130]", "EC50": "< 10"}, {"smiles": "CC(C)(C)NC[C@H](O)c1cccc2[nH]c3ncccc3c12", "note": "[Compound 04-131]", "EC50": "< 10"}, {"smiles": "CC(C)(C)NC[C@H](O)c1cccc2c1OC(C)(C)C(=O)N2", "note": "[Compound 04-133]", "EC50": "< 10"}, {"smiles": "CC(C)(C)NC[C@@H](O)c1ccc2cccc(C#N)c2n1", "note": "[Compound 04-134]", "EC50": "100 to 1000"}, {"smiles": "CC(C)(C)NC[C@H](O)c1ccc2cccc(C#N)c2n1", "note": "[Compound 04-135]", "EC50": "< 10"}, {"smiles": "CC(C)(C)NC[C@@H](O)c1ccc2ccc(C(F)(F)F)cc2n1", "note": "[Compound 04-136]", "EC50": "100 to 1000"}, {"smiles": "CC(C)(C)NCC(O)c1ccc2ccc(C(F)(F)F)cc2[n+]1[O-]", "note": "(centres unmarked) [Compound 04-137]", "EC50": "10 to 100"}, {"smiles": "Cc1ccc2[nH]ncc2c1[C@@H](O)CNC(C)(C)C", "note": "[Compound 04-138]", "EC50": "100 to 1000"}, {"smiles": "CC(C)(C)NC[C@H](O)c1c(Cl)ccc2[nH]ncc12", "note": "[Compound 04-139]", "EC50": "> 1000"}, {"smiles": "CC(C)CNC[C@H](O)c1ccc2nc[nH]c2c1", "note": "[Compound 04-140]", "EC50": "100 to 1000"}, {"smiles": "CC(C)(CO)NC[C@H](O)c1cccc2[nH]c(=O)ccc12", "note": "[Compound 04-141]", "EC50": "< 10"}, {"smiles": "O=c1ccc2c([C@@H](O)CNC3CCC3)cccc2[nH]1", "note": "[Compound 04-142]", "EC50": "< 10"}, {"smiles": "CC(C)CNC[C@H](O)c1cccc2[nH]c(=O)ccc12", "note": "[Compound 04-143]", "EC50": "10 to 100"}]}, {"target": "T2, β1-adrenergic receptor (B1-AR) (Homo sapiens, UniProt P08588)", "T2 construct": "expressed in transfected cells", "T2 sequence (P08588 whole entry)": "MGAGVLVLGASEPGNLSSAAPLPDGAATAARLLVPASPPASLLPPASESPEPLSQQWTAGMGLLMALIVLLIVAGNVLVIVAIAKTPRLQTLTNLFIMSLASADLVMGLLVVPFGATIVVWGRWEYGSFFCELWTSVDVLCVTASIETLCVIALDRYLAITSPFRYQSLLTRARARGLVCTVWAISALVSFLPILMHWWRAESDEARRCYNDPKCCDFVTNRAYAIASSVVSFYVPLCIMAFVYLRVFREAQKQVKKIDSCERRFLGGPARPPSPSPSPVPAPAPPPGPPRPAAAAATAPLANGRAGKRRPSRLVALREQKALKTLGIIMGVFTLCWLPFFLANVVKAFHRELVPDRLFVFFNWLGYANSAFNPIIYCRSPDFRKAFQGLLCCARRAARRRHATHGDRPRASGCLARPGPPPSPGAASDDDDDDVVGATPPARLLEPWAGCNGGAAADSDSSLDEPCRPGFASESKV", "test": "cAMP Gs dynamic HTRF assay, cells expressing β1-adrenergic receptor", "type": "cell-based", "settings": "CHO-K1 (HitHunter) cells; read-out: Average pEC50 [Receptor subtype: B1-AR; Cell type: CHO-K1 (HitHunter)] (converted)", "protocol": "as §1, §2, §3, §4", "units": {"EC50": "nM"}, "values": [{"smiles": "Cc1c[nH]c2cccc([C@@H](O)CNC(C)(C)C)c12", "note": "[Compound 04-111]", "EC50": "> 1000"}, {"smiles": "CC(C)(C)NC[C@H](O)c1cccc2[nH]cc(F)c12", "note": "[Compound 04-112]", "EC50": "< 10"}, {"smiles": "CC(C)(C)NC[C@H](O)c1cccc2[nH]nc(F)c12", "note": "[Compound 04-113]", "EC50": "< 10"}, {"smiles": "Cc1c[nH]c2nccc([C@@H](O)CNC(C)(C)C)c12", "note": "[Compound 04-114]", "EC50": "> 1000"}, {"smiles": "CC(C)(C)NC[C@H](O)c1ccc2nn[nH]c2c1", "note": "[Compound 04-115]", "EC50": "100 to 1000"}, {"smiles": "CC(C)(C)NC[C@H](O)c1cccc2[nH]c(=O)oc12", "note": "[Compound 04-116]", "EC50": "< 10"}, {"smiles": "CC(C)(C)NC[C@H](O)c1cc(Cl)c2[nH]cnc2c1", "note": "[Compound 04-117]", "EC50": "100 to 1000"}, {"smiles": "Cc1nc2cc([C@@H](O)CNC(C)(C)C)ccc2[nH]1", "note": "[Compound 04-118]", "EC50": "> 1000"}, {"smiles": "CC(C)(C)NC[C@H](O)c1cccc2[nH]c3cccnc3c12", "note": "[Compound 04-119]", "EC50": "< 10"}, {"smiles": "CC(C)(C)NC[C@H](O)c1cccc2c1C1(CC1)CN2", "note": "[Compound 04-120]", "EC50": "> 1000"}, {"smiles": "CC(C)(C)NC[C@H](O)c1ccc(F)c2[nH]c3ccccc3c12", "note": "[Compound 04-122]", "EC50": "< 10"}, {"smiles": "CC(C)(C)NC[C@H](O)c1ccc2c(c1)C1(CC1)CN2", "note": "[Compound 04-123]", "EC50": "> 1000"}, {"smiles": "CC(C)(C)NC[C@H](O)c1ccc2[nH]cnc2c1", "note": "[Compound 04-124]", "EC50": "10 to 100"}, {"smiles": "COc1ccc(C[C@@H](C)NC[C@H](O)c2cccc3[nH]c4ccccc4c23)cc1", "note": "[Compound 04-125]", "EC50": "10 to 100"}, {"smiles": "CC(C)(C)NC[C@@H](O)c1ccnc2[nH]ncc12", "note": "[Compound 04-126]", "EC50": "> 1000"}, {"smiles": "CC(C)(C)NC[C@H](O)c1ccnc2[nH]ncc12", "note": "[Compound 04-127]", "EC50": "10 to 100"}, {"smiles": "CC(C)(C)NC[C@H](O)c1ccc2c(c1)[nH]c1ncccc12", "note": "[Compound 04-128]", "EC50": "> 1000"}, {"smiles": "CC(C)(C)NC[C@H](O)c1cccc2c1CCCC(=O)N2", "note": "[Compound 04-129]", "EC50": "> 1000"}, {"smiles": "Cc1ccc([C@@H](O)CNC(C)(C)C)c2cn[nH]c12", "note": "[Compound 04-130]", "EC50": "< 10"}, {"smiles": "CC(C)(C)NC[C@H](O)c1cccc2[nH]c3ncccc3c12", "note": "[Compound 04-131]", "EC50": "< 10"}, {"smiles": "CC(C)(C)NC[C@H](O)c1cccc2c1OC(C)(C)C(=O)N2", "note": "[Compound 04-133]", "EC50": "< 10"}, {"smiles": "CC(C)(C)NC[C@@H](O)c1ccc2cccc(C#N)c2n1", "note": "[Compound 04-134]", "EC50": "10 to 100"}, {"smiles": "CC(C)(C)NC[C@H](O)c1ccc2cccc(C#N)c2n1", "note": "[Compound 04-135]", "EC50": "< 10"}, {"smiles": "CC(C)(C)NC[C@@H](O)c1ccc2ccc(C(F)(F)F)cc2n1", "note": "[Compound 04-136]", "EC50": "> 1000"}, {"smiles": "CC(C)(C)NCC(O)c1ccc2ccc(C(F)(F)F)cc2[n+]1[O-]", "note": "(centres unmarked) [Compound 04-137]", "EC50": "100 to 1000"}, {"smiles": "Cc1ccc2[nH]ncc2c1[C@@H](O)CNC(C)(C)C", "note": "[Compound 04-138]", "EC50": "> 1000"}, {"smiles": "CC(C)(C)NC[C@H](O)c1c(Cl)ccc2[nH]ncc12", "note": "[Compound 04-139]", "EC50": "> 1000"}, {"smiles": "CC(C)CNC[C@H](O)c1ccc2nc[nH]c2c1", "note": "[Compound 04-140]", "EC50": "> 1000"}, {"smiles": "CC(C)(CO)NC[C@H](O)c1cccc2[nH]c(=O)ccc12", "note": "[Compound 04-141]", "EC50": "10 to 100"}, {"smiles": "O=c1ccc2c([C@@H](O)CNC3CCC3)cccc2[nH]1", "note": "[Compound 04-142]", "EC50": "< 10"}, {"smiles": "CC(C)CNC[C@H](O)c1cccc2[nH]c(=O)ccc12", "note": "[Compound 04-143]", "EC50": "10 to 100"}]}]}
